Reference: US11186576B2, “Pyrazolo[1,5-A][1,3,5]triazine and pyrazolo[1,5-A]pyrimidine derivatives as CDK inhibitors” (Aurigene Discovery Technologies Limited, priority 2015, dated 2021)

Target: CDK7/CycH/MNAT1 (Homo sapiens (Human), UniProt P50613)
Assay: Biochemical assay for CDK7 (TR-FRET kinase assay)
Conditions: 60 min pre-incubation, 1 mM ATP; for inhibition at 10 µM / % inhibition @ 10 μM: 10 μM compound; for inhibition at 10 µM: read-out: % inhibition @ 10 μM; for IC50: read-out: IC50
Protocol: The ability of compounds to inhibit CDK7 kinase activity was tested in a TR-FRET assay using 5 nM of CDK7/CycH/MNAT1 obtained from Invitrogen, USA. Test compounds were pre-incubated with the kinase at room temperature for 60 min. After incubation, substrate mix [100 nM Ultra-light MBP (Perkin Elmer, USA) and 1 mM ATP (Sigma)] was added. The above reaction was stopped by the addition of 40 mM EDTA after 60 minutes of kinase reaction. 1 nM Eu-labelled antiphospho-MBP antibody [Perkin Elmer, USA] was added, mixed well and the fluorescence emission at 615 nm and 665 nm [excitation at 340 nm] was measured. The final DMSO concentration in the assay was 1%. For IC50 determination, appropriate concentrations were made by ⅓^rd serial dilutions of 10 mM DMSO stock solution of test compound. All the fluorescence measurements were made in a Victor 3 Multilabel Counter [Perkin Elmer, USA]. The IC50 was determined by fitting the dose response data to sigmoidal curve fitting equation using GraphPad Prism software V5. To identify compounds that inhibit CDK7 irreversibly, time depended inhibition studies were carried by pre-incubating compound with the enzyme at three time points (20, 60 and 180 min) and carrying out assay as described above.

Chain of CDK7/CycH/MNAT1 (P50613 whole entry): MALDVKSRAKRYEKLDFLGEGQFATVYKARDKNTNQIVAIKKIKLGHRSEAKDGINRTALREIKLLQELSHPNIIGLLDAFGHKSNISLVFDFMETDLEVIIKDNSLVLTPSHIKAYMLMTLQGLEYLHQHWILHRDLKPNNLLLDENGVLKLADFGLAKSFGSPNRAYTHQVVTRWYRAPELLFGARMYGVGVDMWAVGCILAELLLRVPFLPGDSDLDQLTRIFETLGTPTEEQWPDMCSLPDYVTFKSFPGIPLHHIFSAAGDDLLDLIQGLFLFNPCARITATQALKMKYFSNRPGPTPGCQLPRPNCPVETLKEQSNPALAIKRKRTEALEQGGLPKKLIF
Chain of CDK7/CycH/MNAT1 (P51946 whole entry partner): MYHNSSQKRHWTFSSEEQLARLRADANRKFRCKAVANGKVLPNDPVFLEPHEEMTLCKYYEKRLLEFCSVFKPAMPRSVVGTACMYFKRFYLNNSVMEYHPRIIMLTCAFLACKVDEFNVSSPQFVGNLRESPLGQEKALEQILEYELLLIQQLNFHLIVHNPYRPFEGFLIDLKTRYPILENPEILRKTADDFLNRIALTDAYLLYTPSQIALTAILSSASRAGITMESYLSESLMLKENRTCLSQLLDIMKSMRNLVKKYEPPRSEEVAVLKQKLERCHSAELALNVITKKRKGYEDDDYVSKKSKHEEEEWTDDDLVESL
Chain of CDK7/CycH/MNAT1 (P51948 whole entry partner): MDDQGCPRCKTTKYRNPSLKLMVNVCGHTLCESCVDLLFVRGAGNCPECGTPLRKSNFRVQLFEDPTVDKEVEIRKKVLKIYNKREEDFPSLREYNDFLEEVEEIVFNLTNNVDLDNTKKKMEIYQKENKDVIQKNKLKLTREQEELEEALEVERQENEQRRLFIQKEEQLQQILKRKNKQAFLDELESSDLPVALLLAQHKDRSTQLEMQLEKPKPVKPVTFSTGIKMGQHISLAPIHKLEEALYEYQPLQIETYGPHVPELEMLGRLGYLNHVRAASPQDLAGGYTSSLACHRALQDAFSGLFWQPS

Compound	inhibition at 10 µM	IC50	% inhibition @ 10 μM
C=CC(=O)N1CCCCC1C(=O)Nc1cc(CNc2nc(NC3CCOCC3)nc3c(C(C)C)cnn23)ccc1F (stereo not shown) [Compound 44, 1-acryloyl-N-(2-fluoro-5-(((8-isopropyl-2-((tetrahydro-2H-pyran-4-yl)amino)pyrazolo[1,5-a][1,3,5]triazin-4-yl)amino)methyl)phenyl)piperidine-2-carboxamide]	94%	< 300 nM	
C=CC(=O)N[C@H]1CC[C@@H](C(=O)Nc2cccc(Nc3nc(NC4CCOCC4)nc4c(C(C)C)cnn34)c2)CC1 [Compound 87, (1,4-cis)-4-acrylamido-N-(3-((8-isopropyl-2-((tetrahydro-2H-pyran-4-yl)amino)pyrazolo[1,5-a][1,3,5]triazin-4-yl)amino)phenyl)cyclohexane-1-carboxamide]			32%
C=CC(=O)N1CCC1C(=O)Nc1ccc(C)c(CNc2nc(NC3CCOCC3)nc3c(C(C)C)cnn23)c1 (stereo not shown) [Compound 27, 1-acryloyl-N-(3-(((8-isopropyl-2-((tetrahydro-2H-pyran-4-yl)amino)pyrazolo[1,5-a][1,3,5]triazin-4-yl)amino)methyl)-4-methylphenyl)azetidine-2-carboxamide]	100%	< 300 nM	
C=CC(=O)N[C@H]1CC[C@@H](C(=O)Nc2cccc(CNc3nc(OC4CCOCC4F)nc4c(C(C)C)cnn34)c2)CC1 (single isomer, unassigned) [Compound 99, 4-acrylamido-N-(3-(((2-((3-fluorotetrahydro-2H-pyran-4-yl)oxy)-8-isopropylpyrazolo[1,5-a][1,3,5]triazin-4-yl)amino)methyl)phenyl)cyclohexane-1-carboxamide]		> 1000 nM	82%
C=CC(=O)N1CCC(C(=O)Nc2cccc(CNc3nc(OC)nc4c(C(C)C)cnn34)c2)CC1 [Compound 136, 1-acryloyl-N-(3-(((8-isopropyl-2-methoxypyrazolo[1,5-a][1,3,5]triazin-4-yl)amino)methyl)phenyl)piperidine-4-carboxamide]	73%	> 1000 nM	
C=CC(=O)N[C@H]1CC[C@@H](C(=O)Nc2cccc(Nc3nc(OC4CCN(C)CC4)nc4c(C(C)C)cnn34)c2)CC1 [Compound 126, (1,4-cis)-4-acrylamido-N-(3-((8-isopropyl-2-((1-methylpiperidin-4-yl)oxy)pyrazolo[1,5-a][1,3,5]triazin-4-yl)amino)phenyl)cyclohexane-1-carboxamide]		> 1000 nM	
C=CC(=O)N1CCOC(C(=O)Nc2cccc(CNc3nc(NC4CCOCC4)nc4c(C(C)C)cnn34)c2)C1 (stereo not shown) [Compound 23, 4-acryloyl-N-(3-(((8-isopropyl-2-((tetrahydro-2H-pyran-4-yl)amino)pyrazolo[1,5-a][1,3,5]triazin-4-yl)amino)methyl)phenyl)morpholine-2-carboxamide]	98%	< 300 nM	
C=CC(=O)N1CCC1C(=O)Nc1cccc(CNc2nc(NC3CCOCC3)nc3c(C(C)C)cnn23)c1F (stereo not shown) [Compound 30, 1-acryloyl-N-(2-fluoro-3-(((8-isopropyl-2-((tetrahydro-2H-pyran-4-yl)amino)pyrazolo[1,5-a][1,3,5]triazin-4-yl)amino)methyl)phenyl)azetidine-2-carboxamide]	98%	< 300 nM	
C=CC(=O)NC(C)(C)C(=O)Nc1cccc(CNc2nc(NC3CCOCC3)nc3c(C(C)C)cnn23)c1 [Compound 82, N-(1-((3-(((8-isopropyl-2-((tetrahydro-2H-pyran-4-yl)amino)pyrazolo[1,5-a][1,3,5]triazin-4-yl)amino)methyl)phenyl)amino)-2-methyl-1-oxopropan-2-yl)acrylamide]	93%	300 to 1000 nM	
C=CC(=O)N1CCC(C(=O)Nc2cccc(CNc3nc(OCCOCCOC)nc4c(C(C)C)cnn34)c2)C1 (stereo not shown) [Compound 104, 1-acryloyl-N-(3-(((8-isopropyl-2-(2-(2-methoxyethoxy)ethoxy)pyrazolo[1,5-a][1,3,5]triazin-4-yl)amino)methyl)phenyl)pyrrolidine-3-carboxamide]	78%	> 1000 nM	
C=CC(=O)N1CCC1C(=O)Nc1cc(F)cc(CNc2nc(NC3CCOCC3)nc3c(C(C)C)cnn23)c1 (stereo not shown) [Compound 31, 1-acryloyl-N-(3-fluoro-5-(((8-isopropyl-2-((tetrahydro-2H-pyran-4-yl)amino)pyrazolo[1,5-a][1,3,5]triazin-4-yl)amino)methyl)phenyl)azetidine-2-carboxamide]	100%	< 300 nM	
CC(C)c1cnn2c(NCc3cccc(NC(=O)/C=C/CN4CCC(F)C4)c3)nc(NC3CCOCC3)nc12 (stereo not shown) [Compound 56, (E)-4-(3-fluoropyrrolidin-1-yl)-N-(3-(((8-isopropyl-2-((tetrahydro-2H-pyran-4-yl)amino)pyrazolo[1,5-a][1,3,5]triazin-4-yl)amino)methyl)phenyl)but-2-enamide]	97%	< 300 nM	
CC(C)c1cnn2c(NCc3cccc(NC(=O)/C=C/CN4CCC(F)(F)C4)c3)nc(NC3CCOCC3)nc12 [Compound 57, (E)-4-(3,3-difluoropyrrolidin-1-yl)-N-(3-(((8-isopropyl-2-((tetrahydro-2H-pyran-4-yl)amino)pyrazolo[1,5-a][1,3,5]triazin-4-yl)amino)methyl)phenyl)but-2-enamide]	84%	> 1000 nM	
CC(C)=CC(=O)N1CCC1C(=O)Nc1cccc(CNc2nc(NC3CCOCC3)nc3c(C(C)C)cnn23)c1 (stereo not shown) [Compound 17, N-(3-(((8-isopropyl-2-((tetrahydro-2H-pyran-4-yl)amino)pyrazolo[1,5-a][1,3,5]triazin-4-yl)amino)methyl)phenyl)-1-(3-methylbut-2-enoyl)azetidine-2-carboxamide]	84%	> 1000 nM	
CC(C)c1cnn2c(NCc3cccc(NC/C=C/C(=O)N(C)C)c3)nc(NC3CCOCC3)nc12 [Compound 49, (E)-4-((3-(((8-isopropyl-2-((tetrahydro-2H-pyran-4-yl)amino)pyrazolo[1,5-a][1,3,5]triazin-4-yl)amino)methyl)phenyl)amino)-N,N-dimethylbut-2-enamide]	84%	> 1000 nM	
C=CC(=O)N1CCCCC1C(=O)Nc1ccc(F)c(CNc2nc(NC3CCOCC3)nc3c(C(C)C)cnn23)c1 (stereo not shown) [Compound 37, 1-acryloyl-N-(4-fluoro-3-(((8-isopropyl-2-((tetrahydro-2H-pyran-4-yl)amino)pyrazolo[1,5-a][1,3,5]triazin-4-yl)amino)methyl)phenyl)piperidine-2-carboxamide]	91%	< 300 nM	
CC(C)c1cnn2c(NCc3cccc(NC(=O)/C=C/CN4CCOCC4)c3)nc(NC3CCOCC3)nc12 [Compound 51, (E)-N-(3-(((8-isopropyl-2-((tetrahydro-2H-pyran-4-yl)amino)pyrazolo[1,5-a][1,3,5]triazin-4-yl)amino)methyl)phenyl)-4-morpholinobut-2-enamide]	91%	300 to 1000 nM	
CC(C)c1cnn2c(NCc3cccc(NC(=O)C4COCCN4C(=O)/C=C/CN(C)C)c3)nc(NC3CCOCC3)nc12 (stereo not shown) [Compound 73, (E)-4-(4-(dimethylamino)but-2-enoyl)-N-(3-(((8-isopropyl-2-((tetrahydro-2H-pyran-4-yl)amino)pyrazolo[1,5-a][1,3,5]triazin-4-yl)amino)methyl)phenyl)morpholine-3-carboxamide]	101%	< 300 nM	
